By IC50 is commonly meant the midpoint of a concentration-inhibition curve.

In patent publication US20230159469A1, “NOVEL PHTHALAZINE DERIVATIVE HAVING ECTONUCLOEOTIDE PYROPHOSPHATASE/PHOSPHODIESTE RASE INHIBITORY ACTIVITY, AND USE THEREOF” (TXINNO BIOSCIENCE INC., priority 2020, published 2023) one finds IC50 data, which are given here for 16 molecules.

Counter-ions that a name gives are not always drawn.

This experiment deals with T1, human recombinant ENPP1 (Homo sapiens, UniProt P22413).
T1 construct: purchased R & D systems
T1 sequence (P22413 1-925): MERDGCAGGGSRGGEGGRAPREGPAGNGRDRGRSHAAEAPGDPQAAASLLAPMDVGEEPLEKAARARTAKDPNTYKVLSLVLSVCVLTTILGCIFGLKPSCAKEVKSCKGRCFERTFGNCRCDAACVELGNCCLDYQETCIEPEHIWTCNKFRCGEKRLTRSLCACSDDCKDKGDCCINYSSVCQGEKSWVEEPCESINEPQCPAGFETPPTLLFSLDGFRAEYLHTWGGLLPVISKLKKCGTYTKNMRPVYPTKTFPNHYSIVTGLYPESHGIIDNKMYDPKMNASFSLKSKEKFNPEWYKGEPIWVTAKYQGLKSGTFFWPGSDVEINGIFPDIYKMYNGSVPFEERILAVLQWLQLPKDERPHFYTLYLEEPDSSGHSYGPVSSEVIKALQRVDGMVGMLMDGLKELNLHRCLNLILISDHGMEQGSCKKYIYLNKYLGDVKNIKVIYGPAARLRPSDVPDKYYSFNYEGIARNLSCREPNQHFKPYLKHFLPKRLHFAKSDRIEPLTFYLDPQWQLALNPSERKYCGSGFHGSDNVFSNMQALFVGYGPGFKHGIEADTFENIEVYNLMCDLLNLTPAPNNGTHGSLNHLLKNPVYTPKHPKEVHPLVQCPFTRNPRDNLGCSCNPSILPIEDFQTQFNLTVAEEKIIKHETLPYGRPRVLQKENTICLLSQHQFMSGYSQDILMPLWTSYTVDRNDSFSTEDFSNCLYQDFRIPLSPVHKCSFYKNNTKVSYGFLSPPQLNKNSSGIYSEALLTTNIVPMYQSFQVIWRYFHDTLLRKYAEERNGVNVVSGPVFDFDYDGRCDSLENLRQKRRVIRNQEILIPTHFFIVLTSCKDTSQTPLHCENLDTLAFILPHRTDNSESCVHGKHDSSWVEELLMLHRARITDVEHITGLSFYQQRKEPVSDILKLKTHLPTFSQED
Nature of the experiment: ENPP1 enzyme assay with cGAMP substrate (AMP-Glo luminescence). Type of experiment: biochemical. The following applies: human recombinant ENPP1 3 ng/reaction, cGAMP 5 μM, 37° C. 90 minutes, read-out: Enzymatic activity (ENPP1 IC50). The essentials: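 Human ENPP1 hydrolysis of 5 μM cGAMP was run for 90 min at 37° C in 50 mM Tris pH 8.5, 250 mM NaCl, 0.5 mM CaCl2, 1 μM ZnCl2, 5% glycerol, 1% DMSO. AMP product was quantified by AMP-Glo luminescence; IC50 came from 3-parameter fits of % residual activity, averaged over at least two runs.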

In the case of `COc1cc2c(-c3ccc(CN(C)S(N)(=O)=O)cc3F)n[nH]c(=O)c2cc1OC` [Compound No. 114, N-(4-(6,7-dimethoxy-4-oxo-3,4-dihydrophthalazin-1-yl)-3-fluorobenzyl)-N-methyl sulfamide hydrochloride], the IC50 is 1000 to 10000 nM. With `COc1cc2c(-c3ccc(CNS(N)(=O)=O)c(F)c3F)n[nH]c(=O)c2cc1OC` [Compound No. 115, N-(4-(6,7-dimethoxy-4-oxo-3,4-dihydrophthalazin-1-yl)-2,3-difluorobenzyl)sulfamide hydrochloride] the figure was 1000 to 10000 nM; with `COc1cc2c(-c3ccc(CNS(N)(=O)=O)cc3C(F)(F)F)n[nH]c(=O)c2cc1OC` [Compound No. 116, hydrochloride], 1000 to 10000 nM. With `COc1cc2c(-c3ccc(CN(C)S(N)(=O)=O)c(F)c3F)n[nH]c(=O)c2cc1OC` [Compound No. 117, N-(4-(6,7-dimethoxy-4-oxo-3,4-dihydrophthalazin-1-yl)-2,3-difluorobenzyl)-N-methyl sulfamide hydrochloride] the figure was greater than 10000 nM; with `COc1cc2c(-c3ccc(CN(C)S(N)(=O)=O)cc3C(F)(F)F)n[nH]c(=O)c2cc1OC` [Compound No. 118, hydrochloride], greater than 10000 nM; with `COc1cc2c(-c3ccc(CNS(N)(=O)=O)c(C(F)(F)F)c3)n[nH]c(=O)c2cc1OC` [Compound No. 119, hydrochloride], 1000 to 10000 nM. With `COc1cc2c(-c3ccc(CN(C)S(N)(=O)=O)c(C(F)(F)F)c3)n[nH]c(=O)c2cc1OC` [Compound No. 120, hydrochloride] the figure was greater than 10000 nM; with `NS(=O)(=O)N1CCc2ccc(-c3n[nH]c(=O)c4ccccc34)cc2C1` [Compound No. 121, 7-(4-oxo-3,4-dihydrophthalazin-1-yl)-3,4-dihydroisoquinoline-2(1H) sulfamide hydrochloride], less than 1000 nM. On to `COc1cc2c(-c3ccc4c(c3)CN(S(N)(=O)=O)CC4)n[nH]c(=O)c2cc1OC` [Compound No. 122, 7-(6,7-dimethoxy-4-oxo-3,4-dihydrophthalazin-1-yl)-3,4-dihydroisoquinoline-2(1H)-sulfamide], for which the IC50 is less than 1000 nM. The result for `CC(NS(N)(=O)=O)c1ccc(-c2n[nH]c(=O)c3ccccc23)cc1` (stereo not shown) [Compound No. 123, N-(1-(4-(4-oxo-3,4-dihydrophthalazin-1-yl)phenyl)ethyl)sulfamide hydrochloride] reads less than 1000 nM.

As to `C[C@@H](NS(N)(=O)=O)c1ccc(-c2n[nH]c(=O)c3ccccc23)cc1` [Compound No. 124, (R)-N-(1-(4-(4-oxo-3,4-dihydrophthalazin-1-yl)phenyl)ethyl)sulfamide hydrochloride], the IC50 is less than 1000 nM. Take `CC(C)(NS(N)(=O)=O)c1ccc(-c2n[nH]c(=O)c3ccccc23)cc1` [Compound No. 125, N-(2-(4-(4-oxo-3,4-dihydrophthalazin-1-yl)phenyl)propan-2-yl)sulfamide hydrochloride]: the IC50 fell in the range of 1000 to 10000 nM.

In the case of `NS(=O)(=O)NCc1ccc(-c2n[nH]c(=O)c3ccccc23)cc1C(F)(F)F` [Compound No. 126, N-(4-(4-oxo-3,4-dihydrophthalazin-1-yl)-2-(trifluoromethyl)benzyl)sulfamide hydrochloride], the IC50 was less than 1000 nM. With `CN(Cc1ccc(-c2n[nH]c(=O)c3ccccc23)cc1)S(N)(=O)=O` [Compound No. 127, N-methyl-N-(4-(4-oxo-3,4-dihydrophthalazin-1-yl)benzyl)sulfamide] the figure was less than 1000 nM; with `NS(=O)(=O)N1CCc2cc(-c3n[nH]c(=O)c4ccccc34)ccc2C1` [Compound No. 128, 6-(4-oxo-3,4-dihydrophthalazin-1-yl-3,4-dihydroisoquinoline-2(1H)-sulfonamide hydrochloride], 1000 to 10000 nM; with `Cn1nc(-c2ccc3c(c2)CCN(S(N)(=O)=O)C3)c2ccccc2c1=O` [Compound No. 129, 6-(3-methyl-4-oxo-3,4-dihydrophthalazin-1-yl)-3,4-dihydroisoquinoline-2(1H)-sulfonamide hydrochloride], 1000 to 10000 nM.
